Results on 1 molecule are retold here after US12343319B2, “Compositions and methods for treatment of diseases and disorders” (Atai Therapeutics Inc., priority 2023, dated 2025).

The subject of this assay is Male Sprague-Dawley rats. Nature of the assay: Rat forced swim test, immobility frequency. Conditions: 3 and 30 mg/kg, i.p. at 23.5, 16 and 0.5 hours prior; 5-minute swim test. In kind it is in vivo. On the procedure:
Male Sprague-Dawley rats were placed individually in clear acrylic swim chambers (40 cm height×20.3 cm diameter) filled to 16 cm for a 15-minute pre-swim session on day 1 and filled to 30 cm for a 5-minute swim test session 24 hours later. Rats (n=10 per treatment group) were administered compound 2-1 (3, 10, 30 mg/kg, i.p., 1 mL/kg, based on weight of the free base) or vehicle (40% (w/v) 2-HPBCD in water, i.p.) at 23.5, 16 and 0.5 hours prior to the swim test. The rapid-acting antidepressant, ketamine (10 mg/kg, i.p.), was included in the study as a positive control condition and injected once 24 hours prior to the swim test.

For `COc1ccc(OC)c(CCNCc2cc(C)cc(Cl)c2)c1` [Compound 2-1, N-(3-chloro-5-methylbenzyl)-2-(2,5-dimethoxyphenyl)ethan-1-amine], the “frequency of immobility compared to vehicle” value is on record as “significantly decreased”.
